Results as given in patent publication US12622899B2 (PureTech LYT 100, Inc., priority 2018, dated 2026).

What was measured:
[1] = system: patients with COVID-19 respiratory disease; assay: Phase 2 trial of LYT-100 in post-acute COVID-19 respiratory disease: tolerability; assay type: in vivo, human; conditions: COVID-19 study
Protocol: An initial dosage of 500 mg BID was given the first 3 days of dosing, followed by 750 mg BID thereafter.

[2] = molecular target: T1, CYP1A2 (Homo sapiens, UniProt P05177); assay: In vitro stability with recombinant human CYP1A2; assay type: in vitro ADME; conditions: recombinant human isozyme; read-out: t1/2 following incubation with CYP1A2 (converted)
T1 construct: host or cells: heterologous cell systems (not specified)
T1 sequence (P05177 1-516): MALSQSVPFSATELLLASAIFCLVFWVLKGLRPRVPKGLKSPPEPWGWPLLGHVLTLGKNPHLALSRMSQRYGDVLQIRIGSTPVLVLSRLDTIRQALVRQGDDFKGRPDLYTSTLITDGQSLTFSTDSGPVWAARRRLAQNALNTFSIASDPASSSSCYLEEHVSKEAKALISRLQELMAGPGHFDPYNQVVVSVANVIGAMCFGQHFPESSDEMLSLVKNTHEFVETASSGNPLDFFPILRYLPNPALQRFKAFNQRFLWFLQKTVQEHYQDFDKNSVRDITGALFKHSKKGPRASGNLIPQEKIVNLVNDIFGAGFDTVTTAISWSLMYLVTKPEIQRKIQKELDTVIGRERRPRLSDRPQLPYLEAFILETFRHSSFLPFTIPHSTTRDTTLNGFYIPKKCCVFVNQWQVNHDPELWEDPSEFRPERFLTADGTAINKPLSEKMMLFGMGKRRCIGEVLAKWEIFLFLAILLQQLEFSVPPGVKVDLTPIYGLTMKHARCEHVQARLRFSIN
Protocol: The half-life (t½) of each test article was determined.

[3] = system: older, healthy subjects; assay: Crossover study Part 2: safety and tolerability (TEAEs), fed and fasted; assay type: in vivo, human
Text: Over-encapsulation was utilized to maintain study blind. […] Approximately 50 older healthy female and male adult subjects (1:1 ratio) were randomized into 1 of 2 cohorts:Cohort 1 or Cohort 2, N=˜25 subjects per cohort. Subjects in each cohort were randomized to treatment sequence as follows: • Sequence A: Pirfenidone to LYT-100 • Sequence B: LYT-100 to pirfenidone

[4] = Study LYT-100-2021-103 Part 3 (Example 2): PK of LYT-100 550 mg TID then 824 mg TID; assay type: in vivo, human
Protocol: Subjects provided blood samples prior to treatment, i.e., Day −1 or Day 1, for the determination of CYP1A2, CYP2C9, CYP2C19, and CYP2D6 genotype to support exploratory PK analyses. Subjects were required to provide consent for genotyping. Blood samples for PK were collected at specified times, as follows: • Day 1:0 (pre-AM dose) • Day 2: no sampling • Day 3:0 (pre-AM dose), and 1, 2, 3, 4, 6 (pre-mid-day dose), 7, 8, 9, 10, 12 (pre-PM dose), 13, 14, 15, 16, and 17 hours post-AM dose • Day 4:0 (pre-AM dose) • Day 5: no sampling • Day 6:0 (pre-AM dose), and 1, 2, 3, 4, 6 (pre-mid-day dose), 7, 8, 9, 10, 12 (pre-PM dose), 13, 14, 15, 16, and 17 hours post-AM dose • Day 7:0 (same time as Day 6 pre-AM dose, discharge)
Data was obtained for thirty subjects. Eight subjects had all values reported as below level of quantitation (BLQ; assumed to be 6 placebo subjects plus 2 active subjects with Day 1 pre-dose samples only). One additional subject was excluded due to a large number of BLQ samples on both Days 3-4 and 6-7. Accordingly, twenty-one subjects had sufficient PK data available to calculate PK parameters at the lower dose (550 mg TID on Days 3-4). Three subjects only had data for Days 3-4, and therefore had missing PK parameters for the higher dose (824 mg TID on Days 6-7).

[5] = system: patients with Idiopathic Pulmonary Fibrosis (IPF); assay: IPF trial Part B (open label long-term extension): efficacy, safety, TEAEs; assay type: in vivo, human
Text: Part B (long-term extension) will evaluate the tolerability and long-term safety of LYT-100 in patients who complete the Double-blind Treatment Period. Part B has two periods. […] Patients completing Part B Period 1 will continue maintenance treatment in Part B Period 2 until the study ends. Part B Period 2 will continue at least until all patients who enter Part B Period 1 have the opportunity to complete Part B Period 1. Tolerability and safety during both Part B Period 1 and Part B Period 2 will be monitored by regularly scheduled review of adverse events (AEs), patient reported symptoms, concomitant medications, clinical laboratory findings, physical examinations, electrocardiograms (ECGs), and vital signs. Efficacy will be assessed by evaluation of pulmonary function and monitored by spirometry at regularly scheduled clinic visits. A graphical illustration of an embodiment of the trial design is provided as FIG. 24C.
At the start of Part B, all patients received LYT-100 oral tablets. Patients were titrated onto their assigned doses.
The proportion of patients with prior exposure to nintedanib was limited to 50%.
One hundred and seventy (170) patients (greater than 90%) enrolled in the Open Label Extension (Part B) of the study.

[6] = LYT-100 500 mg BID 3 days then 750 mg BID
[7] = Part A LYT-100 → Part B LYT-100 (N = 81)
[8] = Part A Pirfenidone → Part B LYT-100 (N = 39)
[9] = Part A Placebo → Part B LYT-100 (N = 50)

SMILES: [2H]C([2H])([2H])c1ccc(=O)n(-c2ccccc2)c1 [LYT-100, 5-(methyl-d3)-1-phenylpyridin-2-(1H)-one]
- drug-related serious adverse events or deaths [1]: no drug-related serious adverse events (SAEs) or deaths
- discontinuation rate due to AEs at least possibly related [1, 6]: 8.6%
- dizziness, AE at least possibly related, incidence [1, 6]: 3.3%
- fatigue, AE at least possibly related, incidence [1, 6]: 2.2%
- headache, AE at least possibly related, incidence [1, 6]: 4.3%
- nausea, AE at least possibly related, incidence [1, 6]: 8.7%
- rash, AE at least possibly related, incidence [1, 6]: 3.3%
- Dyspepsia, treatment emergent AE, events ([1]; LYT-100 750 mg BID): 6 Events
- Dyspepsia, treatment emergent AE, subjects ([1]; LYT-100 750 mg BID): 6 (6.5) N (%)
- Headache, treatment emergent AE, events ([1]; LYT-100 750 mg BID): 5 Events
- Headache, treatment emergent AE, subjects ([1]; LYT-100 750 mg BID): 5 (5.4) N (%)
- Increase in Fibrin D Dimer, treatment emergent AE, events ([1]; LYT-100 750 mg BID): 6 Events
- Increase in Fibrin D Dimer, treatment emergent AE, subjects ([1]; LYT-100 750 mg BID): 5 (5.4) N (%)
- Nasopharyngitis, treatment emergent AE, events ([1]; LYT-100 750 mg BID): 7 Events
- Nasopharyngitis, treatment emergent AE, subjects ([1]; LYT-100 750 mg BID): 6 (6.5) N (%)
- Nausea, treatment emergent AE, events ([1]; LYT-100 750 mg BID): 10 Events
- Nausea, treatment emergent AE, subjects ([1]; LYT-100 750 mg BID): 8 (8.7) N (%)
- Upper abdominal pain, treatment emergent AE, events ([1]; LYT-100 750 mg BID): 6 Events
- Upper abdominal pain, treatment emergent AE, subjects ([1]; LYT-100 750 mg BID): 5 (5.4) N (%)
- half-life [2]: 9.08 h
- deaths or serious AEs ([3]; Part 2): No deaths or serious AEs
- TEAEs leading to study discontinuation, subjects ([3]; in vivo): one
- Cmax, PK Parent ([4]; Healthy Older Part 3, LYT-100 824 mg TID, fed, N=13, mean (SD)): 13.7 (5.1) mcg/mL
- AUC, % higher compared to historic pirfenidone PK values ([4]; LYT-100 824 mg TID): approximately 25%
- exposure equivalent, % of 801 TID pirfenidone ([4]; LYT-100 825 mg TID): 120-150%
- Cmax, % higher than with pirfenidone ([4]; Part 3, LYT-100 824 mg TID): 17%
- response in Open Label Extension ([5]; IPF Part B, ongoing, LYT-100 825 mg TID (FIG. 49)): durable response
- TEAE Abdominal Pain [5, 7]: 2 (2.5) n (%)
- TEAE Diarrhea [5, 7]: 2 (2.5) n (%)
- TEAE Dyspepsia [5, 7]: 7 (8.6) n (%)
- TEAE Nausea [5, 7]: 5 (6.2) n (%)
- TEAE SOC Gastrointestinal disorders [5, 7]: 17 (21.0) n (%)
- TEAE Vomiting [5, 7]: 2 (2.5) n (%)
- TEAE Abdominal Pain [5, 8]: 1 (2.6) n (%)
- TEAE Diarrhea [5, 8]: 1 (2.6) n (%)
- TEAE Dyspepsia [5, 8]: 0 n (%)
- TEAE Nausea [5, 8]: 2 (5.1) n (%)
- TEAE SOC Gastrointestinal disorders [5, 8]: 5 (12.8) n (%)
- TEAE Vomiting [5, 8]: 0 n (%)
- TEAE Abdominal Pain [5, 9]: 2 (4.0) n (%)
- TEAE Diarrhea [5, 9]: 2 (4.0) n (%)
- TEAE Dyspepsia [5, 9]: 7 (14.0) n (%)
- TEAE Nausea [5, 9]: 7 (14.0) n (%)
- TEAE SOC Gastrointestinal disorders [5, 9]: 18 (36.0) n (%)
- TEAE Vomiting [5, 9]: 3 (6.0) n (%)
- TEAE Abdominal Pain ([5]; Part B Subtotal (N = 170)): 5 (2.9) n (%)
- TEAE Diarrhea ([5]; Part B Subtotal (N = 170)): 5 (2.9) n (%)
- TEAE Dyspepsia ([5]; Part B Subtotal (N = 170)): 14 (8.2) n (%)
- TEAE Nausea ([5]; Part B Subtotal (N = 170)): 14 (8.2) n (%)
- TEAE SOC Gastrointestinal disorders ([5]; Part B Subtotal (N = 170)): 40 (23.5) n (%)
- TEAE Vomiting ([5]; Part B Subtotal (N = 170)): 5 (2.9) n (%)
